Measured values taken from patent US20260297060A1, “COMPOUNDS FOR THE DEGRADATION OF MUTANT BRAF” (C4 THERAPEUTICS, INC., priority 2023, published 2026).
Like-named read-outs stand apart in the source and are kept apart here.

What was measured:
[1] = Example 7 pharmacokinetics assay for PKPD study (plasma, tumor, liver); format: in vivo, BALB/c nude mice; conditions: mouse, po, 10 mg/kg, p.o., single dose
Method: For the PK and PD study, agents were administered to BALB/c nude mice bearing A375 human melanoma xenografts tumors. Dabrafenib, Compound 141, Compound 118, Compound 156, and Compound 180 were dosed p.o. once on day 1. Known BRAF inhibitor Dabrafenib was used as a positive control. Dabrafenib was dosed at 100 mg/kg. Compound 141, Compound 118, Compound 156, and Compound 180 were dosed at 10 mg/kg.
The plasma samples were collected at predetermined time points for PK analysis. The mice were euthanized at predetermined time points post the treatment. The blood samples were collected into the 1.5 mL Eppendorf tubes containing 15 μL of 0.5 M EDTA-K2. And then the anticoagulant blood samples were centrifuged at 2,500 g at 4° C. for 15 minutes. The plasma samples were separated into 2 aliquots. The 1st was used for PK analysis, and the 2nd served as backup. The samples were stored at −80° C. before bioanalysis.
The tumor samples were collected at predetermined time points for PK and WB analysis. The tumor was dissected out and split into 3 parts. The 1st part was used for PK analysis, the 2nd part was used for WB analysis and the last one served as backup for study. The samples were transferred into pre-labeled tubes and quickly froze in liquid nitrogen within 2 minutes after dissection. The samples were stored at −80° C. before bioanalysis.
Liver samples were collected at predetermined time points for PK analysis. The left lobe of the liver was dissected out and split into 2 parts. The 1st part was used for PK analysis and the 2nd part served as the backup for the study. The samples were transferred into pre-labeled tubes and quickly froze in liquid nitrogen within 2 minutes after dissection. The samples were stored at −80° C. before bioanalysis.
The harvested plasma and liver samples were processed for pharmacokinetics analysis by LC-MS/MS with a concentration range of 0.500-1000 ng/mL for Dabrafenib, Compound 118 and Compound 180 in plasma, 0.100~200 ng/ml for Dabrafenib in Liver and tumor homogenate, 50.0~50,000 ng/mL for Compound 141 in plasma and Liver homogenate, 1.00-1000 ng/ml for Compound 141 in tumor homogenate, 2.00~2000 ng/mL for Compound 118 and Compound 180 in Liver and 0.200~200 ng/ml in tumor homogenate, 1.00~2000 ng/mL for Compound 156 in plasma, 0.500-1000 ng/ml in liver and 0.500-1,000 ng/ml in tumor homogenate.

[2] = system: A375 human melanoma xenografts; assay: Example 7 efficacy study in A375 human melanoma xenografts (tumor volume, T/C, TGI); format: in vivo, BALB/c nude mice; conditions: 10 mg/kg, p.o.; for T/C / TGI / Tumor Size on PG-D14 (mean ± SEM): PG-D14
Method: For efficacy study, agents were tested in the A375 human melanoma xenografts. Compound 118, Compound 156, and Compound 180 were administered to BALB/c nude mice bearing A375 xenografts from day 0 and dosed p.o. twice per day (BID). Compound 141 was administered from day 0 and dosed p.o. twice per day (BID) or dosed p.o. daily (QD) from day 1. Compound 141, Compound 118, Compound 156, and Compound 180 were dosed at 10 mg/kg for 14 days. The known BRAF inhibitor Dabrafenib was used as a positive control. Dabrafenib was administered from day 1 and dosed p.o. daily (QD) for 14 days and dosed at 100 mg/kg.
The A375 tumor cells were maintained in vitro in DMEM medium supplemented with […] and 1% Penicillin-Streptomycin at 37° C. in an atmosphere of 5% CO2 in air. The tumor cells were routinely subcultured twice weekly. The cells growing in an exponential growth phase were harvested and counted for tumor inoculation.
Each mouse was inoculated subcutaneously at the right flank with A375 tumor cells (5×10^6) in 0.2 mL of PBS with Matrigel (PBS: Matrigel=1:1) supplemented for tumor development. Animals were grouped when the average tumor volume reached 246 mm^3 for efficacy study and 390 mm^3 for PKPD study on day 17 after tumor inoculation. The test articles administration and the animal numbers in each group are shown in the above experimental tables.
Prior to the onset of drug treatment, mice were measured for tumor size in two dimensions using a caliper, and the tumor volume (mm^3) was calculated using formula V=0.5 a×b^2 where a and b are the long and short diameters of the tumor in mm, respectively. Mice were randomized into different treatment groups based on the tumor volume.
The major endpoint was to see if the tumor growth could be delayed or mice could be cured. The tumor size was then used for calculations of T/C value. The T/C value (in percent) is an indication of antitumor effectiveness; T and C are the mean volumes of the treated and control groups, respectively on specified day.
TGI was calculated for each group using the formula: TGI (%)=[1−(Ti−T0)/(Ci−C0)]×100; Ti is the average tumor volume of a treatment group on a given day, T0 is the average tumor volume of the treatment group on the day of treatment start, Ci is the average tumor volume of the vehicle control group on the same day with Ti, and C0 is the average tumor volume of the vehicle group on the day of treatment start.

[3] = liver, read-out: Concentration in Liver (mean ± SEM)
[4] = plasma, read-out: Concentration in Plasma (mean ± SEM)
[5] = tumor, read-out: Concentration in Tumor (mean ± SEM)

| Compound | concentration at 6 h [1, 3] [ng/g] | concentration at 12 h [1, 3] [ng/g] | concentration at 1 h [1, 4] [ng/mL] | concentration at 6 h [1, 4] [ng/mL] | concentration at 12 h [1, 4] [ng/mL] | concentration at 24 h [1, 4] [ng/mL] | concentration at 1 h [1, 5] [ng/g] | concentration at 6 h [1, 5] [ng/g] | concentration at 12 h [1, 5] [ng/g] | concentration at 24 h [1, 5] [ng/g] | T/C ([2]; BID × 14 days) [%] | TGI ([2]; BID × 14 days) [%] | Tumor Size on PG-D14 (mean ± SEM) ([2]; BID × 14 days) [mm^3] | Tumor Volume (mean ± SEM) ([2]; BID × 14 days, day 0) [mm^3] | Tumor Volume (mean ± SEM) ([2]; BID × 14 days, day 3) [mm^3] | Tumor Volume (mean ± SEM) ([2]; BID × 14 days, day 7) [mm^3] | Tumor Volume (mean ± SEM) ([2]; BID × 14 days, day 10) [mm^3] | Tumor Volume (mean ± SEM) ([2]; BID × 14 days, day 14) [mm^3] | also measured |
| --- | --- | --- | --- | --- | --- | --- | --- | --- | --- | --- | --- | --- | --- | --- | --- | --- | --- | --- | --- |
| CCN(C)S(=O)(=O)Nc1ccc(F)c(Oc2ccc3ncn(C4CC5(CCN(C6CCN(c7cc8c(cc7F)c(N7CCC(=O)NC7=O)nn8C)CC6)CC5)C4)c(=O)c3c2)c1C#N [Compound 156, 6-[2-cyano-3-[[ethyl(methyl)sulfamoyl]amino]-6-fluoro-phenoxy]-3-[7-[1-[3-(2,4-dioxohexahydropyrimidin-1-yl)-5-fluoro-1-methyl-indazol-6-yl]-4-piperidyl]-7-azaspiro[3.5]nonan-2-yl]-4-oxo-quinazoline] | 1460 ± 170 | 262 ± 100 | 4130 ± 545 | 805 ± 85.2 | 111 ± 46.3 | 1.78 ± 0.554 | 758 ± 66.9 | 295 ± 30.3 | 102 ± 35.6 | 33.5 | 2.6 | 119.6 | 34 ± 5 | 246 ± 13 | 203 ± 16 | 111 ± 4 | 68 ± 3 | 34 ± 5 |  |
| CCN(C)S(=O)(=O)Nc1ccc(F)c(Oc2ccc3ncc(OCC4CCN(C5CCC(c6cc7c(cc6F)c(N6CCC(=O)NC6=O)nn7C)CC5)CC4)nc3c2)c1C#N (single isomer, unassigned) [Compound 118, 7-[2-cyano-3-[[ethyl(methyl)sulfamoyl]amino]-6-fluoro-phenoxy]-2-[[1-[4-[3-(2,4-dioxohexahydropyrimidin-1-yl)-5-fluoro-1-methyl-indazol-6-yl]cyclohexyl]-4-piperidyl]methoxy]quinoxaline] | 103000 ± 9270 | 111000 ± 12000 | 1240 ± 90.2 | 1500 ± 574 | 985 ± 234 | 595 ± 81.8 | 345 ± 57.4 | 855 ± 257 | 509 ± 101 | 254 ± 7.8 | 6.1 | 115.3 | 81 ± 8 | 247 ± 14 | 326 ± 20 | 192 ± 20 | 117 ± 13 | 81 ± 8 |  |
| CCN(C)S(=O)(=O)Nc1ccc(F)c(Oc2ccc3ncn(C4CC5(CCN(C6CC7(C6)CN(c6cc8c(cc6F)c(N6CCC(=O)NC6=O)nn8C)C7)CC5)C4)c(=O)c3c2)c1C#N (centres unmarked) [Compound 141, 6-[2-cyano-3-[[ethyl(methyl)sulfamoyl]amino]-6-fluoro-phenoxy]-3-[7-[2-[3-(2,4-dioxohexahydropyrimidin-1-yl)-5-fluoro-1-methyl-indazol-6-yl]-2-azaspiro[3.3]heptan-6-yl]-7-azaspiro[3.5]nonan-2-yl]-4-oxo-quinazoline] | 9730 ± 1380 | 3050 ± 618 | 17700 ± 924 | 10700 ± 1420 | 2530 ± 365 | 219 ± 74.6 | 2120 ± 109 | 2230 ± 114 | 818 ± 121 | 75.4 ± 24.3 | 2.4 | 119.8 | 32 ± 4 | 246 ± 15 | 181 ± 15 | 109 ± 13 | 59 ± 6 | 32 ± 4 | T/C ([2]; QD × 14 days): 3.0%; TGI ([2]; QD × 14 days): 119.0%; Tumor Size on PG-D14 (mean ± SEM) ([2]; QD × 14 days): 40 ± 6 mm^3; Tumor Volume (mean ± SEM) ([2]; QD × 14 days, day 0): 246 ± 12 mm^3; Tumor Volume (mean ± SEM) ([2]; QD × 14 days, day 3): 275 ± 9 mm^3; Tumor Volume (mean ± SEM) ([2]; QD × 14 days, day 7): 138 ± 13 mm^3; Tumor Volume (mean ± SEM) ([2]; QD × 14 days, day 10): 81 ± 9 mm^3; Tumor Volume (mean ± SEM) ([2]; QD × 14 days, day 14): 40 ± 6 mm^3 |
| CCN(C)S(=O)(=O)Nc1ccc(F)c(Oc2ccc3ncc(C4CC5(CCN(C6CCC(c7cc8c(cc7F)c(N7CCC(=O)NC7=O)nn8C)CC6)CC5)C4)nc3c2)c1C#N (single isomer, unassigned) [Compound 180, 7-[2-cyano-3-[[ethyl(methyl)sulfamoyl]amino]-6-fluoro-phenoxy]-2-[7-[4-[3-(2,4-dioxohexahydropyrimidin-1-yl)-5-fluoro-1-methyl-indazol-6-yl]cyclohexyl]-7-azaspiro[3.5]nonan-2-yl]quinoxaline] | 712 ± 282 | 247 ± 33.7 | 5110 ± 867 | 260 ± 84.3 | 155 ± 27.8 | 1.54 ± 0.588 | 680 ± 72.8 | 245 ± 34.7 | 82.6 ± 21.8 | 3.89 | 7.2 | 113.9 | 96 ± 11 | 247 ± 16 | 319 ± 22 | 222 ± 18 | 151 ± 16 | 96 ± 11 |  |
